Laboratory results reported in patent publication US9238654B2, “Singleton inhibitors of sumoylation enzymes and methods for their use” (CITY OF HOPE, priority 2010, dated 2016).
Where two headings read alike, the source gives them in different places.

Columns and labels:
[1] = Stability in Tris buffer, parent remaining by HPLC-MS; format: physicochemical; settings: for % Remaining after 60 min in 50 mM Tris (−BSA): without BSA; for % Remaining after 60 min in 50 mM Tris (+BSA): with BSA
Description: Stable compounds in Tris were tested with and without BSA. Amount of parent compound remaining was quantified using HPLC-MS (area under the curve (AUC) method).

SUMO E1 or SUMO E2 = target: T1, SUMO E1 or SUMO E2 (Homo sapiens, UniProt Q9UBE0+Q9UBT2); assay: SUMOylation HTS assay, SUMO (AlphaScreen-BSA), SUMOylation of RanGAP1; format: biochemical
T1 sequence (Q9UBE0 1-346): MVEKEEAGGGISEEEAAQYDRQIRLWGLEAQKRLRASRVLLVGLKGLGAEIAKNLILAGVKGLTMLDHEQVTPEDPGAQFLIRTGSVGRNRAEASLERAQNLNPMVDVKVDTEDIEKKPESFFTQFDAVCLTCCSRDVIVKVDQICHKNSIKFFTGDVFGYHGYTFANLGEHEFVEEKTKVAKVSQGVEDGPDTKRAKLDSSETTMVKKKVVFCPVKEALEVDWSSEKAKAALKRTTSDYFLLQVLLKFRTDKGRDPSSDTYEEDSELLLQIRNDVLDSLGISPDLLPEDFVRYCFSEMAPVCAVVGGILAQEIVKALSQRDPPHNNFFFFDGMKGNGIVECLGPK
T1 sequence (Q9UBT2 1-640): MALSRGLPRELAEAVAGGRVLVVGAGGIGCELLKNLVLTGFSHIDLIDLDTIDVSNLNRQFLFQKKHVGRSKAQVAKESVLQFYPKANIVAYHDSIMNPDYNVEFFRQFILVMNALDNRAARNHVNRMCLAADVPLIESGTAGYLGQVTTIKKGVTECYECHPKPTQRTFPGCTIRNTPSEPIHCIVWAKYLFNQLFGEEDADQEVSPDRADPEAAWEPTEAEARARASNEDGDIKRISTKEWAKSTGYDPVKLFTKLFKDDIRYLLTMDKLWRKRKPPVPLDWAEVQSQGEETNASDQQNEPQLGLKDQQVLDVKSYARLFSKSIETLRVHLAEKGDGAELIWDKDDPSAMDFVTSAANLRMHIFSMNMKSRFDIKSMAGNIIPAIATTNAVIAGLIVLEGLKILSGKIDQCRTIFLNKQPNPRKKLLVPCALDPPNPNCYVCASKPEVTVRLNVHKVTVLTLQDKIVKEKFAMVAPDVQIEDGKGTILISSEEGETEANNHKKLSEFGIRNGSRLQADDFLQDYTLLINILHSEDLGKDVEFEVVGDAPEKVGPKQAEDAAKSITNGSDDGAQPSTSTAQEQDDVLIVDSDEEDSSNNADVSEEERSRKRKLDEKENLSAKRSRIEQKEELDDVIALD
Description: (§1) A lead compound was selected, and is identified herein as MLS0437113 (FIG. 3).
(§2) Each singleton analog was analyzed to determine its inhibitory effect on SUMOylation and ubiquitination, tested both in the HTS format and gel-based format (FIG. 4).

SUMO E1 [2] = target: T2, SUMO E1 (Homo sapiens, UniProt Q9UBE0+Q9UBT2); assay: Gel-based assay of SUMO-RanGap1, E1-SUMO and E2~SUMO thioester conjugate formation; format: biochemical; settings: for Inhibitory effect on SUMOylation, comparison within the series: HTS and gel-based format, each inhibitor 10 μM (FIG. 4); for SUMO-RanGap1 and SUMO-E2 Conjugation Inhibition: strength in words
T2 sequence (Q9UBE0 1-346): T1 sequence (Q9UBE0 1-346)
T2 sequence (Q9UBT2 1-640): T1 sequence (Q9UBT2 1-640)
Description: FIG. 4 illustrates a representative assay to determine the efficacy of E1 inhibitors generated from a singleton probe. Stereo-specific effects of this series in inhibiting the SUMO E1. […] Negative and positive controls were reactions in the absence and presence of ATP. […] The compounds that are immediately right to them in the assays, MLS-0437114 and MLS-0437121, are their stereo-isomers, respectively. The stereo chemistry was determined by X-ray crystallography.
as §2
The molecular weight (MW), IC50, strength of SUMO-RanGap1 and SUMO-E2 conjugation inhibition of the SUMO E1 inhibitors derived from the singleton scaffold (see Table 1 above for structures) generated according to the embodiments herein are shown in Table 3 below.

SUMO E1 [3] = target: T2, SUMO E1; assay: Rate of SUMO~E1 product formation with increasing inhibitor concentrations; format: biochemical
Description: Data is analyzed by fitting to a rectangular hyperbolic to extract IC50 (lower left) or the solution to a quadratic equation to determine Ki^app (lower right).
Their inhibitory constants were measured in the reaction to monitor the rate of SUMO˜E1 product formation in the presence of increasing concentrations of inhibitors (FIG. 5). Inhibition studies were performed in both the presence and absence of 0.02% Triton X-100 to ensure against potential promiscuous inhibition by premicelles due to the formation of aggregates. Inhibition data was fit to a rectangular hyperbolic to extract an IC50 (Equation 1). The Ki^app was extracted by fitting the percent inhibition as a function of inhibitor concentration using equations 1 and 2 (FIG. 5) (Spengler et al. 2005). % Inhibition=([I]*Vmax)/([I]+IC50) (Equation 1) v/v0=(1−(([E]0+[I]+Ki^app)−(([E]0+[I]+Ki^app)^2−4([E]0[I]))^1/2)/2[E]0 (Equation 2)

ubiquitin E1 = target: T3, ubiquitin E1 (Homo sapiens, UniProt P22314); assay: Poly-ubiquitination assay using ubiquitin, ubiquitin E1, Ubc5 and Apc11; format: biochemical; settings: SUMO E1 versus ubiquitin E1, derived from the IC50s of HTS assays
T3 sequence (P22314 1-1058): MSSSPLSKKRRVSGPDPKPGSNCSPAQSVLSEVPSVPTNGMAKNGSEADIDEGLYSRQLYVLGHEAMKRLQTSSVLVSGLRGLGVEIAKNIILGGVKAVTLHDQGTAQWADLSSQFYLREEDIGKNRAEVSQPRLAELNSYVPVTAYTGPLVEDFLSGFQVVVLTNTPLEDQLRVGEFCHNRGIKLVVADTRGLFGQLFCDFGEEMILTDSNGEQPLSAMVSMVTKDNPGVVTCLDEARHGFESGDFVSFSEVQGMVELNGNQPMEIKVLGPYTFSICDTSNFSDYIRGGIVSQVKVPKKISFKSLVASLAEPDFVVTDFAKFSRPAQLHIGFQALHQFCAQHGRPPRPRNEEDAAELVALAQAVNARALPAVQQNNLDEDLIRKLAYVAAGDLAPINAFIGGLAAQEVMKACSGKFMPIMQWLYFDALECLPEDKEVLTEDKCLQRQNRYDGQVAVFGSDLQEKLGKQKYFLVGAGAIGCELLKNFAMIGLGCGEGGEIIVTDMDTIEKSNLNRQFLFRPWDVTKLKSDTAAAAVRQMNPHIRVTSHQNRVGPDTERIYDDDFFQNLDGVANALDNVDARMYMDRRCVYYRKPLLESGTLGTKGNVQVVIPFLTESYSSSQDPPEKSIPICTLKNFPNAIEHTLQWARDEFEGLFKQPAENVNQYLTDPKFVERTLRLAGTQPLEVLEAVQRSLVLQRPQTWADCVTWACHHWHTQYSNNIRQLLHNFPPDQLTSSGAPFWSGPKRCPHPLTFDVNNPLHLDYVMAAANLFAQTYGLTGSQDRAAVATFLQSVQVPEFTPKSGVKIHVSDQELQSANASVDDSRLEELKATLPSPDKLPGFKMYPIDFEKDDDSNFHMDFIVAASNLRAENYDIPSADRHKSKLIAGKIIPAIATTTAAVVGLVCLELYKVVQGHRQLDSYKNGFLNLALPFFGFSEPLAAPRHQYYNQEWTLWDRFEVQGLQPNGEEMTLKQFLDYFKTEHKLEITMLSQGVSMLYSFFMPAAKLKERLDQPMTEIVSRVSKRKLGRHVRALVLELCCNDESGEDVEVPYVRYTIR
Description: as §1, §2

MCF-7 cells = assay: Inhibition of global SUMOylation in cells, Western blot with anti-SUMO antibodies; format: cell-based; settings: compound in culture media 8-18 h
Description: Western blots (probed with anti-SUMO2/3 antibodies) of cell lysates from MCF-7 cells treated with the inhibitor. SUMO2/3 modifies many proteins as poly-SUMO chains, and is detected as high molecular weight smears.
In this experiment, the compound was added to cell culture media at the indicated concentrations for 8-18 h. Then SUMOylated proteins were detected using anti-SUMO antibodies.

[4] = test system: Immortalized human hepatocytes, Fa2N-4 cells; assay: Hepatocyte toxicity, cell viability by cellular ATP levels; format: cell-based; settings: concentrations up to 50 μM, 24 hrs
Description: FIG. 10 illustrates that E1 inhibitor MLS-0437113 has low toxicity in a normal liver cell line. Immortalized human hepatocytes, Fa2N-4 cells (XenoTech) were seeded at ˜50-60K cells/well, and incubated with a range of concentrations (0.01-50 μM) 1, in duplicate, for 24 hrs at 37° C., 5% CO2. Cell viability was determined by cellular ATP levels using the Luminescence ATP Detection Assay System (Tecan).

Row | % Remaining after 60 min in 50 mM Tris (−BSA) [1] | SUMO (AlphaScreen-BSA) IC50 (SUMO E1 or SUMO E2) | SUMO-RanGap1 and SUMO-E2 Conjugation Inhibition (SUMO E1 [2]) | Structure (SMILES) | further results
1 | 29% | 5.2 µM | Weak | COC(=O)C1=C(C(=O)OC)C2([C@@H](Cc3ccccc3)Nc3ccc(Cl)cc3)C=CC1O2 (mixture of isomers) [MLS-0437120] | Inhibitory effect on SUMOylation, comparison within the series (SUMO E1 [2]): more inhibitory than MLS-0437121
2 | 86% | – | – | COC(=O)C1=C(C(=O)OC)C2([C@@H](Nc3ccccc3)c3ccc(C)cc3)C=C[C@@H]1O2 (stereo in doubt) [MLS-0437317] | % Remaining after 60 min in 50 mM Tris (+BSA) [1]: 85%; Stability in Tris buffer, in words [1]: stable; Inhibition of SUMO E1, potency in words (SUMO E1 [3]): high potency; SUMO/ubiquitin Selectivity (ubiquitin E1): >100; Inhibition of global SUMOylation (MCF-7 cells): inhibited global SUMOylation in a dose-dependent manner
3 | 48% | – | – | CCC[C@H](Nc1ccccc1)C12C=C[C@H](O1)C(C(=O)OC)=C2C(=O)OC (stereo in doubt) [MLS-0437313] | % Remaining after 60 min in 50 mM Tris (+BSA) [1]: 89%; SUMO/ubiquitin Selectivity (ubiquitin E1): >100
4 | – | 11.5 µM | Weak | C=CC[C@H](Nc1ccc(Cl)cc1)C12C=CC(O1)C(C(=O)OC)=C2C(=O)OC (some centres unmarked) [MLS-0437127] | –
5 | – | 6.9 µM | Weak | COC(=O)C1=C(C(=O)OC)C2([C@@H](Cc3ccccc3)Nc3ccc(C)cc3)C=CC1O2 (some centres unmarked) [MLS-0437109] | –
6 | – | 9.5 µM | Very Weak | COC(=O)C1=C(C(=O)OC)C2([C@@H](Cc3ccccc3)Nc3ccc(OC)cc3)C=CC1O2 (some centres unmarked) [MLS-0437118] | –
7 | 0% | 0.47 µM | Strong | COC(=O)C1=C(C(=O)OC)[C@@]2([C@@H](Cc3ccccc3)Nc3ccccc3)C=C[C@@H]1O2 (racemic) [MLS-0437113, Dimethyl 1-(2-Phenyl-1-(phenylamino)ethyl)-7-oxabicyclo[2.2.1]hepta-2,5-diene-2,3-dicarboxylate] | Stability in Tris buffer, in words [1]: unstable; Inhibition of SUMO E1, potency in words (SUMO E1 [3]): similarly potent; Inhibition of SUMO E1, potency in words (SUMO E1 [3]; listed as MLS0437113): submicromolar inhibition; Toxicity in human hepatocytes [4]: low toxicity; Inhibitory effect on SUMOylation, comparison within the series (SUMO E1 [2]): most potent inhibitor in this series
8 | – | 11.7 µM | Weak | COC(=O)C1=C(C(=O)OC)C2([C@H](Cc3ccccc3)Nc3ccccc3)C=CC1O2 (mixture of isomers) [MLS-0437114] | Inhibitory effect on SUMOylation, comparison within the series (SUMO E1 [2]): significantly less inhibitory
9 | – | 9.2 µM | Very Weak | COC(=O)C1=C(C(=O)OC)C2([C@H](Cc3ccccc3)Nc3ccc(Cl)cc3)C=CC1O2 (mixture of isomers) [MLS-0437121] | –
10 | 84% | – | – | COC(=O)C1=C(C(=O)OC)C2(C(Nc3ccccc3)c3ccc(F)cc3)C=C[C@@H]1O2 (some centres unmarked) [MLS-0437320] | % Remaining after 60 min in 50 mM Tris (+BSA) [1]: 87%; SUMO/ubiquitin Selectivity (ubiquitin E1): >100
11 | – | 9.2 µM | Very Weak | COC(=O)C1=C(C(=O)OC)C2([C@H](Cc3ccccc3)Nc3ccc(C)cc3)C=CC1O2 (some centres unmarked) [MLS-0437110] | –
12 | – | 3.3 µM | Strong | C=CC[C@@H](Nc1ccccc1)C12C=CC(O1)C(C(=O)OC)=C2C(=O)OC (some centres unmarked) [MLS-0437111] | –
13 | – | 12.5 µM | Weak | C=CC[C@@H](Nc1ccc(Cl)cc1)C12C=CC(O1)C(C(=O)OC)=C2C(=O)OC (some centres unmarked) [MLS-0437126] | –
14 | 82% | – | – | COC(=O)C1=C(C(=O)OC)C2(C(Nc3ccccc3)c3ccc(OC(F)(F)F)cc3)C=C[C@@H]1O2 (some centres unmarked) [MLS-0437321] | % Remaining after 60 min in 50 mM Tris (+BSA) [1]: 64%; SUMO/ubiquitin Selectivity (ubiquitin E1): >100
